# Experimental data as given in patent publication US4714619A, “Aminomalonyl alanine compounds as dietary sweeteners” (priority 1986, dated 1987).
# Where a name gives a salt, the structure may show the parent alone. Read-outs that look alike come from different tables or passages of the source. Where a SMILES comes first, the peptide text is derived from it.
# Assays:
# [1] = Comparative taste test, D- versus L-configuration (Table 2, FIG. 3); design: Sweet? (average score) / Bitter? (average score) / Salty? (average score) / Off Taste? (average score) / After Taste? (average score): scale not given here
# Method: The compounds were dissolved in distilled water at the concentrations specified in Table 2. Solutions were made up and kept overnight in a refrigerator. The following day, they were poured into individual graduated plastic cups (10 ml per cup) and allowed to warm to room temperature. A taste panel was convened and testing begun that same day. Tasting and evaluation was done by the standard protocol developed by Dr. Robert Gesteland of Taste and Smell Consulting Group, Inc.
# The first solution tasted (reference standard for the panel) was 0.25M sucrose. Other solutions were tasted in radomized fashion. The random order was arrived at as follows:
# i. An ordered list of the compounds and concentrations was prepared (26 solutions in all).
# ii. 0.25M sucrose was designated as 1.
# iii. A standard table of random numbers was used in which the numbers were grouped as two-digit numbers. A point in the table was chosen at random (blind pointing). The first solution in the list was given the first random number in the sequence (read right-to-left, up-to-down) which is between 2 and 26. The second solution in the list was given the next random number in the sequence between 2 and 26, etc. Repeat numbers were ignored.
# iv. Solutions were then labeled A (for number 1) B (for random number 2), C-Z.
# v. Panelists were instructed to taste the solutions in alphabetical order.
# With the assistance of Taste and Smell Consulting Group, Inc., taste panel members were trained adn tested for their ability to discriminate sucrose solutions of varying concentrations. In summary it may be stated that all 9 panel members had acceptble correlation scores. Their results were in good agreement with those which have been previously reported in siilar types of studies. For the test series the correlations for each panelist for sucrose and aspartame were acceptable as were the overall results obtained by averaging individual scores. The results of the taste panel are set forth in Table 2 wherein the parenthetical figures represent the standard error values for the number above.
# [2] = Stability in aqueous solution (hplc, ambient temperature); type: physicochemical; conditions: 0.05m phosphate buffer, ambient temperature, read-out: degradation
# Method: Stability was examined in aqueous solution at various pHs. Solutions (1% w/v) were prepared in 0.05M phosphate buffer adjusted to pH 7.4 and pH 3.5. Storage at ambient temperature over 36 days was monitored by hplc analysis (waters radial-pak reverse phase C-8 column, 25% CH3 CN, 0.05% TFA/H2 O eluant, 210 nm U.V. detection). Aspartame was examined similarly for comparison purposes.
# [3] = Taste panel (Table 1, FIG. 2); conditions: for After Taste? (average score) / Bitter? (average score) / Off Taste? (average score) / Pleasant? (average score) / Salty? (average score) / Sweet? (average score): normalized to 100
compound,measurement,setting,value
"C[C@@H](NC(=O)C(N)C(=O)O)C(=O)OC12CC3CC(CC(C3)C1)C2 (mixture of isomers) [(22), DL-Aminomalonyl-D-alanine 1-Adamantyl Ester Citrate]",sweet taste (words),[1],sweet
"CC(NC(=O)C(N)C(=O)O)C(=O)OC1CCCCC1C (mixture of isomers) [(23), DL-Aminomalonyl-D-alanine trans-2-Methylcyclohexyl Ester Citrate]",sweet taste (words),[1],sweet
"CC(C)OC(=O)[C@H](C)NC(=O)C(N)C(=O)O (mixture of isomers) [Compound (20), DL-Aminomalonyl-L-alanine Isopropyl Ester]",sweet taste (words),[1],not sweet
same,After Taste? (average score),[1]; 0.0431 Millimolar,0
same,Bitter? (average score),[1]; 0.0431 Millimolar,9
same,Off Taste? (average score),[1]; 0.0431 Millimolar,5
same,Pleasant? (average score),[1]; 0.0431 Millimolar,14
same,Salty? (average score),[1]; 0.0431 Millimolar,3
same,Sweet? (average score),[1]; 0.0431 Millimolar,3
same,After Taste? (average score),[1]; 0.4307 Millimolar,8
same,Bitter? (average score),[1]; 0.4307 Millimolar,14
same,Off Taste? (average score),[1]; 0.4307 Millimolar,8
same,Pleasant? (average score),[1]; 0.4307 Millimolar,5
same,Salty? (average score),[1]; 0.4307 Millimolar,16
same,Sweet? (average score),[1]; 0.4307 Millimolar,8
same,After Taste? (average score),[1]; 4.3066 Millimolar,5
same,Bitter? (average score),[1]; 4.3066 Millimolar,0
same,Off Taste? (average score),[1]; 4.3066 Millimolar,5
same,Pleasant? (average score),[1]; 4.3066 Millimolar,19
same,Salty? (average score),[1]; 4.3066 Millimolar,0
same,Sweet? (average score),[1]; 4.3066 Millimolar,5
same,sweet taste (words),[1]; listed as 20,non-sweet
"C[C@@H](NC(=O)C(N)C(=O)O)C(=O)OC1C2(C)CCC(C2)C1(C)C (mixture of isomers) [Compound (21), DL-Aminomalonyl-D-alanine Fenchyl Ester]",sweet taste (words),[1],sweet
same,After Taste? (average score),[1]; 0.0306 Millimolar,12
same,Bitter? (average score),[1]; 0.0306 Millimolar,3
same,Off Taste? (average score),[1]; 0.0306 Millimolar,13
same,Pleasant? (average score),[1]; 0.0306 Millimolar,-9
same,Salty? (average score),[1]; 0.0306 Millimolar,4
same,Sweet? (average score),[1]; 0.0306 Millimolar,1
same,After Taste? (average score),[1]; 0.3064 Millimolar,50
same,Bitter? (average score),[1]; 0.3064 Millimolar,29
same,Off Taste? (average score),[1]; 0.3064 Millimolar,56
same,Pleasant? (average score),[1]; 0.3064 Millimolar,-57
same,Salty? (average score),[1]; 0.3064 Millimolar,9
same,Sweet? (average score),[1]; 0.3064 Millimolar,8
same,After Taste? (average score),[1]; 3.0637 Millimolar,79
same,Bitter? (average score),[1]; 3.0637 Millimolar,90
same,Off Taste? (average score),[1]; 3.0637 Millimolar,99
same,Pleasant? (average score),[1]; 3.0637 Millimolar,-83
same,Salty? (average score),[1]; 3.0637 Millimolar,62
same,Sweet? (average score),[1]; 3.0637 Millimolar,13
"COC(=O)[C@H](Cc1ccccc1)NC(=O)[C@@H](N)CC(=O)O [Aspartame, methyl ester of L-α-Aspartyl-L-phenylalanine] (HELM PEPTIDE1{D.F.[CO[*:1]]}$$$$V2.0)",degraded at 864 h,"[2]; pH 3.5, 36 days",> 50%
same,degraded at 216 h,"[2]; pH 7.4 buffer, 9 days",100%
same,After Taste? (average score),[3]; 0.3392 Millimolar,1
same,Bitter? (average score),[3]; 0.3392 Millimolar,0
same,Off Taste? (average score),[3]; 0.3392 Millimolar,1
same,Pleasant? (average score),[3]; 0.3392 Millimolar,4
same,Salty? (average score),[3]; 0.3392 Millimolar,1
same,Sweet? (average score),[3]; 0.3392 Millimolar,15
same,After Taste? (average score),[3]; 1.0194 Millimolar,2
same,Bitter? (average score),[3]; 1.0194 Millimolar,0
same,Off Taste? (average score),[3]; 1.0194 Millimolar,4
same,Pleasant? (average score),[3]; 1.0194 Millimolar,15
same,Salty? (average score),[3]; 1.0194 Millimolar,3
same,Sweet? (average score),[3]; 1.0194 Millimolar,27
same,After Taste? (average score),[3]; 3.3979 Millimolar,26
same,Bitter? (average score),[3]; 3.3979 Millimolar,4
same,Off Taste? (average score),[3]; 3.3979 Millimolar,2
same,Pleasant? (average score),[3]; 3.3979 Millimolar,26
same,Salty? (average score),[3]; 3.3979 Millimolar,2
same,Sweet? (average score),[3]; 3.3979 Millimolar,68
same,After Taste? (average score),[3]; 10.1937 Millimolar,34
same,Bitter? (average score),[3]; 10.1937 Millimolar,0
same,Off Taste? (average score),[3]; 10.1937 Millimolar,4
same,Pleasant? (average score),[3]; 10.1937 Millimolar,9
same,Salty? (average score),[3]; 10.1937 Millimolar,1
same,Sweet? (average score),[3]; 10.1937 Millimolar,83
same,sweetness potency (reciprocal of concentration required for a score of 50),"[3]; sucrose=1.0, weight scale",126
same,taste quality,[3]; taste panel,sweet and pleasant
same,After Taste? (average score),[1]; 0.3398 Millimolar,1
same,Bitter? (average score),[1]; 0.3398 Millimolar,1
same,Off Taste? (average score),[1]; 0.3398 Millimolar,1
same,Pleasant? (average score),[1]; 0.3398 Millimolar,16
same,Salty? (average score),[1]; 0.3398 Millimolar,0
same,Sweet? (average score),[1]; 0.3398 Millimolar,9
same,After Taste? (average score),[1]; 1.0194 Millimolar,7
same,Bitter? (average score),[1]; 1.0194 Millimolar,3
same,Off Taste? (average score),[1]; 1.0194 Millimolar,6
same,Pleasant? (average score),[1]; 1.0194 Millimolar,8
same,Salty? (average score),[1]; 1.0194 Millimolar,10
same,Sweet? (average score),[1]; 1.0194 Millimolar,27
same,After Taste? (average score),[1]; 3.3979 Millimolar,16
same,Bitter? (average score),[1]; 3.3979 Millimolar,2
same,Off Taste? (average score),[1]; 3.3979 Millimolar,12
same,Pleasant? (average score),[1]; 3.3979 Millimolar,22
same,Salty? (average score),[1]; 3.3979 Millimolar,3
same,Sweet? (average score),[1]; 3.3979 Millimolar,66
same,After Taste? (average score),[1]; 10.1937 Millimolar,22
same,Bitter? (average score),[1]; 10.1937 Millimolar,5
same,Off Taste? (average score),[1]; 10.1937 Millimolar,17
same,Pleasant? (average score),[1]; 10.1937 Millimolar,12
same,Salty? (average score),[1]; 10.1937 Millimolar,0
same,Sweet? (average score),[1]; 10.1937 Millimolar,64
OC[C@H]1O[C@@](CO)(O[C@H]2O[C@H](CO)[C@@H](O)[C@H](O)[C@H]2O)[C@@H](O)[C@@H]1O [Sucrose],After Taste? (average score),[3]; 62.0000 Millimolar,0
same,Bitter? (average score),[3]; 62.0000 Millimolar,3
same,Off Taste? (average score),[3]; 62.0000 Millimolar,4
same,Pleasant? (average score),[3]; 62.0000 Millimolar,-4
same,Salty? (average score),[3]; 62.0000 Millimolar,0
same,Sweet? (average score),[3]; 62.0000 Millimolar,13
same,After Taste? (average score),[3]; 125.0000 Millimolar,5
same,Bitter? (average score),[3]; 125.0000 Millimolar,2
same,Off Taste? (average score),[3]; 125.0000 Millimolar,4
same,Pleasant? (average score),[3]; 125.0000 Millimolar,18
same,Salty? (average score),[3]; 125.0000 Millimolar,8
same,Sweet? (average score),[3]; 125.0000 Millimolar,30
same,After Taste? (average score),[3]; 250.0000 Millimolar,0
same,Bitter? (average score),[3]; 250.0000 Millimolar,0
same,Off Taste? (average score),[3]; 250.0000 Millimolar,0
same,Pleasant? (average score),[3]; 250.0000 Millimolar,49
same,Sweet? (average score),[3]; 250.0000 Millimolar,64
same,After Taste? (average score),[3]; 500.0000 Millimolar,7
same,Bitter? (average score),[3]; 500.0000 Millimolar,6
same,Off Taste? (average score),[3]; 500.0000 Millimolar,5
same,Pleasant? (average score),[3]; 500.0000 Millimolar,32
same,Salty? (average score),[3]; 500.0000 Millimolar,12
same,Sweet? (average score),[3]; 500.0000 Millimolar,75
same,After Taste? (average score),[3]; 1000.0000 Millimolar,30
same,Bitter? (average score),[3]; 1000.0000 Millimolar,0
same,Off Taste? (average score),[3]; 1000.0000 Millimolar,0
same,Pleasant? (average score),[3]; 1000.0000 Millimolar,26
same,Salty? (average score),[3]; 1000.0000 Millimolar,1
same,Sweet? (average score),[3]; 1000.0000 Millimolar,97
same,After Taste? (average score),[1]; 62.0000 Millimolar,10
same,Bitter? (average score),[1]; 62.0000 Millimolar,6
same,Off Taste? (average score),[1]; 62.0000 Millimolar,9
same,Pleasant? (average score),[1]; 62.0000 Millimolar,17
same,Salty? (average score),[1]; 62.0000 Millimolar,9
same,Sweet? (average score),[1]; 62.0000 Millimolar,3
same,After Taste? (average score),[1]; 125.0000 Millimolar,4
same,Bitter? (average score),[1]; 125.0000 Millimolar,2
same,Off Taste? (average score),[1]; 125.0000 Millimolar,3
same,Pleasant? (average score),[1]; 125.0000 Millimolar,21
same,Salty? (average score),[1]; 125.0000 Millimolar,1
same,Sweet? (average score),[1]; 125.0000 Millimolar,30
same,After Taste? (average score),[1]; 250.0000 Millimolar,15
same,Bitter? (average score),[1]; 250.0000 Millimolar,3
same,Off Taste? (average score),[1]; 250.0000 Millimolar,12
same,Pleasant? (average score),[1]; 250.0000 Millimolar,34
same,Salty? (average score),[1]; 250.0000 Millimolar,7
same,Sweet? (average score),[1]; 250.0000 Millimolar,52
same,After Taste? (average score),[1]; 500.0000 Millimolar,9
same,Bitter? (average score),[1]; 500.0000 Millimolar,0
same,Off Taste? (average score),[1]; 500.0000 Millimolar,10
same,Pleasant? (average score),[1]; 500.0000 Millimolar,35
same,Salty? (average score),[1]; 500.0000 Millimolar,0
same,Sweet? (average score),[1]; 500.0000 Millimolar,78
same,After Taste? (average score),[1]; 1000.0000 Millimolar,8
same,Bitter? (average score),[1]; 1000.0000 Millimolar,0
same,Off Taste? (average score),[1]; 1000.0000 Millimolar,12
same,Pleasant? (average score),[1]; 1000.0000 Millimolar,28
same,Salty? (average score),[1]; 1000.0000 Millimolar,0
same,Sweet? (average score),[1]; 1000.0000 Millimolar,95
